The record followed here is patent publication US10722514B2 (FLX Bio, Inc., priority 2017, dated 2020).

Some results are limits rather than exact numbers.

T1 sequence (Q93009 whole entry): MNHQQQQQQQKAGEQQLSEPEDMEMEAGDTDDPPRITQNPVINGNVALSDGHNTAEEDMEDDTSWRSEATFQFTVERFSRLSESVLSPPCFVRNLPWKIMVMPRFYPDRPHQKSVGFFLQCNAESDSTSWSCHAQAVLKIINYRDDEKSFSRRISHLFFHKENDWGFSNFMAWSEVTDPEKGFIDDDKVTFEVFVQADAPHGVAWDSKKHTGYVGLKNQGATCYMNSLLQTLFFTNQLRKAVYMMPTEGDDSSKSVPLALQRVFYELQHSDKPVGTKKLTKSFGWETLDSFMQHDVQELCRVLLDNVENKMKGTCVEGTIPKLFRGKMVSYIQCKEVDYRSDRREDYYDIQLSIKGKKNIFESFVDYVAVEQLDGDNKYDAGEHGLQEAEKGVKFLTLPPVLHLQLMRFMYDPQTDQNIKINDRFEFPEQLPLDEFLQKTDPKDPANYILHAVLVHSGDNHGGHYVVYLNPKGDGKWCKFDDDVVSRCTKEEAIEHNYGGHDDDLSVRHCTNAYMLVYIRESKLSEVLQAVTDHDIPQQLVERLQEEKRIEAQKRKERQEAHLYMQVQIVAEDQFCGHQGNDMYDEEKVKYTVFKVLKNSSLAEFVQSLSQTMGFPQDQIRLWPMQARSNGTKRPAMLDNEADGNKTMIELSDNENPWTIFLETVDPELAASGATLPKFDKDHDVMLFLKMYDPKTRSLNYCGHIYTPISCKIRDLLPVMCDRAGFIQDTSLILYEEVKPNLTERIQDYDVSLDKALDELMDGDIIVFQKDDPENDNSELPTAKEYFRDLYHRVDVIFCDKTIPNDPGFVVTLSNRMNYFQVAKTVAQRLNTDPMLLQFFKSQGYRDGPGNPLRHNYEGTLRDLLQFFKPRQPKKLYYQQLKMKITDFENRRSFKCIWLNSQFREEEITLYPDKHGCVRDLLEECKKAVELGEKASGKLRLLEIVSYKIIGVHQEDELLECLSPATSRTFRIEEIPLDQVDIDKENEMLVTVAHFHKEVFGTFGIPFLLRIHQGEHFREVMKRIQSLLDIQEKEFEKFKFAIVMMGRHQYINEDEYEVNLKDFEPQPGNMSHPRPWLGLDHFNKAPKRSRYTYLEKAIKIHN

The first test addresses T1, recombinant full-length USP7 (Homo sapiens, UniProt Q93009).
T1 construct: A 25 μl reaction volume containing recombinant full-length USP7 (62 pM)
As to the kind of experiment: USP7-mediated ubiquitin-rhodamine cleavage assay. The format is biochemical. The note with it: recombinant full-length USP7 62 pM; ubiquitin-rhodamine 100 nM; 30-minute incubation with compound, 1 hour reaction at room temperature; read-out: Potency: USP7 IC50. The gist of the method: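 Compounds are first incubated with 62 pM enzyme for 30 min at room temperature in pH 7.3 HEPES buffer containing TCEP and BSA. Cleavage of 100 nM ubiquitin-rhodamine proceeds for 1 h before an acid quench, and IC50 is derived from fluorescence.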
The term IC50 denotes the concentration that inhibits the measured activity by half. For `Cc1cc(Cl)cc(-c2ccnc3c(F)c(CN4C(=O)CCC4=O)sc23)c1O[C@H]1CCCNC1` [Example 163, (S)-1-((7-(5-Chloro-3-methyl-2-(piperidin-3-yloxy)phenyl)-3-fluorothieno[3,2-b]pyridin-2-yl)methyl)pyrrolidine-2,5-dione], the IC50 is under 1000 nM.
Still for that read-out and setting: the result for `Cc1cc(Cl)cc(-c2ccnc3cc(CN4C(=O)C5CC5C4=O)sc23)c1O[C@@H]1CCN(C)C[C@@H]1C` (stereo partly drawn) [Example 326, 3-[[7-[5-chloro-2-[[(3S,4R)-1,3-dimethyl-4-piperidyl]oxy]-3-methyl-phenyl]thieno[3,2-b]pyridin-2-yl]methyl]-3-azabicyclo[3.1.0]hexane-2,4-dione] reads under 1000 nM; that for `CCC(O)c1cc2nccc(-c3cc(C#N)cc(C)c3OCC3(C)CNC3)c2s1` (stereo not drawn) [Example 31, 3-(2-(1-Hydroxypropyl)thieno[3,2-b]pyridin-7-yl)-5-methyl-4-((3-methylazetidin-3-yl)methoxy)benzonitrile], 1000 to 10000 nM; that for `Cc1cc(Cl)cc(-c2ccnc3cc(CN4C(=O)CCNC4=O)sc23)c1O[C@@H]1CNC[C@@H]1F` [Example 152, 3-((7-(5-Chloro-2-(((3R,4S)-4-fluoropyrrolidin-3-yl)oxy)-3-methylphenyl)thieno[3,2-b]pyridin-2-yl)methyl)dihydropyrimidine-2,4(1H,3H)-dione], under 1000 nM.
The same measure, in the same setting: in the case of `Cc1cc(Cl)cc(-c2ccnc3cc(CN4C(=O)C5C(C4=O)C5(C)C)sc23)c1O[C@@H]1CNCC[C@@H]1C` (stereo partly drawn) [Example 340, 3-[[7-[5-chloro-3-methyl-2-[[(3S,4S)-4-methyl-3-piperidyl]oxy]phenyl]thieno[3,2-b]pyridin-2-yl]methyl]-6,6-dimethyl-3-azabicyclo[3.1.0]hexane-2,4-dione] it was under 1000 nM; in that of `Cc1cc(Cl)cc(-c2ccnc3cc(CN4C(=O)C5CCC5C4=O)sc23)c1O[C@H]1CCCNC1` (stereo partly drawn) [Example 297, 3-[[7-[5-chloro-3-methyl-2-[[(3S)-3-piperidyl]oxy]phenyl]thieno[3,2-b]pyridin-2-yl]methyl]-3-azabicyclo[3.2.0]heptane-2,4-dione; 2,2,2-trifluoroacetic acid], under 1000 nM; in that of `CCC(O)c1cc2nccc(-c3cc(Cl)cc(C)c3O[C@H]3CCCN(C)C3)c2s1` (stereo partly drawn) [Example 186, 1-(7-(5-Chloro-3-methyl-2-(((S)-1-methylpiperidin-3-yl)oxy)phenyl)thieno[3,2-b]pyridin-2-yl)propan-1-ol], 10000 to 30000 nM.
On the same count and under the same terms, in the case of `Cc1cc(Cl)cc(-c2ccnc3cc(CO)sc23)c1O[C@@H]1CN[C@@H](C)C1` [Example 60, (7-(5-Chloro-3-methyl-2-(((3S,5S)-5-methylpyrrolidin-3-yl)oxy)phenyl)thieno[3,2-b]pyridin-2-yl)methanol] it was 10000 to 30000 nM; in that of `CCC(O)c1cc2nccc(-c3cc(Cl)cc(C)c3OCC3CN(C)C3)c2s1` (stereo not drawn) [Example 3, 1-(7-(5-Chloro-3-methyl-2-((1-methylazetidin-3-yl)methoxy)phenyl)thieno[3,2-b]pyridin-2-yl)propan-1-ol], 10000 to 30000 nM; in that of `Cc1cc(Cl)cc(-c2ccnc3cc(CN4C(=O)CCC4=O)sc23)c1O[C@@H]1CNC[C@H]1F` [Example 104, 1-((7-(5-Chloro-2-(((3R,4R)-4-fluoropyrrolidin-3-yl)oxy)-3-methylphenyl)thieno[3,2-b]pyridin-2-yl)methyl)pyrrolidine-2,5-dione], under 1000 nM.
Take `Cc1cc(Cl)cc(-c2ccnc3ccsc23)c1OC1CCN(C)CC1` [Example 187, 7-(5-Chloro-3-methyl-2-((1-methylpiperidin-4-yl)oxy)phenyl)thieno[3,2-b]pyridine]: the IC50 was 10000 to 30000 nM.
Same read-out and setting: in the case of `Cc1cc(Cl)cc(-c2ccnc3cc(CO)sc23)c1OC1CC2CNC1C2` (stereo not drawn) [Example 165, (7-(2-((2-Azabicyclo[2.2.1]heptan-6-yl)oxy)-5-chloro-3-methylphenyl)thieno[3,2-b]pyridin-2-yl)methanol] it was 1000 to 10000 nM.
Same read-out and setting: the result for `CCC(O)c1cc2nccc(-c3cc(C#N)cc(C)c3OCC3(C#N)CNC3)c2s1` (stereo not drawn) [Example 10, 3-((4-Cyano-2-(2-(1-hydroxypropyl)thieno[3,2-b]pyridin-7-yl)-6-methylphenoxy)methyl)azetidine-3-carbonitrile] reads under 1000 nM; that for `CCC1(C)CC(=O)N(Cc2cc3ncnc(-c4cc(Cl)cc(C)c4O[C@@H]4CNC[C@@H]4F)c3s2)C1=O` (stereo partly drawn) [Example 381, 1-[[4-[5-chloro-2-[(3R,4S)-4-fluoropyrrolidin-3-yl]oxy-3-methyl-phenyl]thieno[3,2-d]pyrimidin-6-yl]methyl]-3-ethyl-3-methyl-pyrrolidine-2,5-dione; 2,2,2-trifluoroacetic acid], under 1000 nM.

The same test, now with this note: recombinant full-length USP7 62 pM; ubiquitin-rhodamine 100 nM; 30-minute pre-incubation, 1 hour reaction at room temperature; read-out: Potency (USP7 IC50).
In the case of `Cc1cc(Cl)cc(-c2ccnc3cc(Cn4c(=O)ccn(CC(F)(F)F)c4=O)sc23)c1OC1CCCCC1` [Example 665, 3-[[7-[5-chloro-2-(cyclohexoxy)-3-methyl-phenyl]thieno[3,2-b]pyridin-2-yl]methyl]-1-(2,2,2-trifluoroethyl)pyrimidine-2,4-dione], the IC50 was under 1000 nM.
Take `Cc1cc(Cl)cc(-c2ccnc3cc(Cn4c(=O)ccn(CC(F)(F)F)c4=O)sc23)c1OCCN` [Example 576, 3-[[7-[2-(2-aminoethoxy)-5-chloro-3-methyl-phenyl]thhieno[3,2-b]pyridin-2-yl]methyl]-1-(2,2,2-trifluoroethyl)pyrimidine-2,4-dione; 2,2,2-trifluoroacetic acid]: the IC50 is under 1000 nM.
Same read-out and setting: the result for `Cc1cc(Cl)cc(-c2ccnc3cc(Cn4c(=O)ccn(C(C)C)c4=O)sc23)c1O[C@H]1CCC2NCCO[C@H]21` (stereo partly drawn) [Example 511, 4-[[7-[2-[[(7S,7aR)-2,3,4,4a,5,6,7,7a-octahydrocyclopenta[b][1,4]oxazin-7-yl]oxy]-5-chloro-3-methyl-phenyl]thieno[3,2-b]pyridin-2-yl]methyl]-1-isopropyl-pyrimidine-2,4-dione] reads under 1000 nM; that for `Cc1cc(Cl)cc(-c2ccnc3cc(Cn4c(=O)ccn(CC(F)(F)F)c4=O)sc23)c1O[C@H]1CCNC[C@@H]1F` [Example 559, 3-[[7-[5-chloro-2-[[(3S,4S)-3-fluoro-4-piperidyl]oxy]-3-methyl-phenyl]thieno[3,2-b]pyridin-2-yl]methyl]-1-(2,2,2-trifluoroethyl)pyrimidine-2,4-dione], under 1000 nM; that for `Cc1cc(Cl)cc(-c2ncnc3cc(Cn4c(=O)ccn(CC(F)(F)F)c4=O)sc23)c1O[C@@H]1CC[C@@H](N)C1` [Example 603, 3-[[4-[2-[(1R,3R)-3-aminocyclopentoxy]-5-chloro-3-methyl-phenyl]thieno[3,2-d]pyrimidin-6-yl]methyl]-1-(2,2,2-trifluoroethyl)pyrimidine-2,4-dione], under 1000 nM.
On the same count and under the same terms, the result for `Cc1cc(Cl)cc(-c2ncnc3cc(Cn4c(=O)ccn(CC(F)(F)F)c4=O)sc23)c1O[C@@H]1CNC[C@@H]1F` [Example 525, 3-[[4-[5-chloro-2-[(3R,4S)-4-fluoropyrrolidin-3-yl]oxy-3-methyl-phenyl]thieno[3,2-d]pyrimidin-6-yl]methyl]-1-(2,2,2-trifluoroethyl)pyrimidine-2,4-dione] reads under 1000 nM; that for `Cc1cc(Cl)cc(-c2ccnc3cc(Cn4c(=O)ccn(C)c4=O)sc23)c1OC1C(C)(C)C(N)C1(C)C` (stereo not drawn) [Example 538, 3-[[7-[2-(3-amino-2,2,4,4-tetramethyl-cyclobutoxy)-5-chloro-3-methyl-phenyl]thieno[3,2-b]pyridin-2-yl]methyl]-1-methyl-pyrimidine-2,4-dione], under 1000 nM.
